Where two headings read alike, the source gives them in different places.
Legend:
[1] = target: T1, human recombinant PTP1B (hGST-PTP1B) (Homo sapiens, UniProt P18031); assay: PTP1B inhibitory assay (pNPP hydrolysis, absorbance at 405 nm); type: biochemical; settings: 2 mM pNPP, 30 nM hGST-PTP1B, pH 6.5, 30° C.; for inhibition at 5 µg/mL: 5 μg/mL compound; for inhibition at 20 µg/mL: 20 μg/mL compound
T1 construct: made in house; host or cells: E. coli BL21
T1 sequence (P18031 1-435): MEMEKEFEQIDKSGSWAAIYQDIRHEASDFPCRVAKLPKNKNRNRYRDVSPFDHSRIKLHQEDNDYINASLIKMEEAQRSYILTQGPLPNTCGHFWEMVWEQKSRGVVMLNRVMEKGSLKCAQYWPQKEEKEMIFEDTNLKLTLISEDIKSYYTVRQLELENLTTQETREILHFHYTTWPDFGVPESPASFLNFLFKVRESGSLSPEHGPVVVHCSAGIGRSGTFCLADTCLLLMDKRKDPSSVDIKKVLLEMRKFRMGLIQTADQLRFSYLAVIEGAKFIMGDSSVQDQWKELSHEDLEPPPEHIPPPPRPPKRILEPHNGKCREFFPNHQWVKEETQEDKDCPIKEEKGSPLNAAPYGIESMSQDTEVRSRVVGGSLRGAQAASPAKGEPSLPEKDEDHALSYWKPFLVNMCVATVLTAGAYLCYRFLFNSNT
Method: Construct human recombinant PTP1B engineering bacteria hGST-PTP1B-BL21 via molecular biology methods, and purify it through GST-tagged affinity chromatography. The principle is that the product pNP, which is enzymolysis of pNPP by PTP1B, absorbs at 405 nm. The activity of PTP1B inhibition can be measured by calculating the quantity of pNP.
Compounds 1-12 were dissolved in DMSO. 2 μL of samples were placed into the system (50 mM Tris-HCl, pH 6.5, 2 mM pNPP, 2% DMSO, 30 nM hGST-PTP1B). DMSO was distributed as negative control and Na3VO4 was positive control. The reaction was at 30° C. and monitored at 405 nm for 3 min. Inhibitory rate was calculated according to the following formula: % inhibition=100% ×[(Vsample−VDMSO)/[…]]

PTP1B = target: T2, PTP1B (Homo sapiens, UniProt P18031); settings: background statement; read-out: IC50 (PTP1B inhibitor); cited from earlier work
T2 sequence (P18031 1-435): T1 sequence (P18031 1-435)

Compound	inhibition at 5 µg/mL [1]	inhibition at 20 µg/mL [1]	IC50 [1]	IC50 ([1]; read-out: IC50 (converted))	IC50 (PTP1B)
CCCOCc1cc(O)c(O)c(Br)c1Cc1cc(O)c(O)c(Br)c1Br [Compound 2, 3,4-dibromo-5-[2′-bromo-3′,4′-dihydroxy-6′-(propoxymethyl)-benzyl]-benzene-1,2-diol]	55.7%	86.2%	1.08 µg/mL		
CCC(C)OCc1cc(O)c(O)c(Br)c1Cc1cc(O)c(O)c(Br)c1Br (centres unmarked) [Compound 6, 3,4-dibromo-5-(2-bromo-6-(sec-butoxymethyl)-3,4-dihydroxybenzyl)benzene-1,2-diol]	42.4%	96.5%		1820 nM	
CC(C)COCc1cc(O)c(O)c(Br)c1Cc1cc(O)c(O)c(Br)c1Br [Compound 5, 3,4-dibromo-5-[2′-bromo-3′,4′-dihydroxy-6′-(isobutoxymethyl)-benzyl]-benzene-1,2-diol]	48.3%	96.2%	0.83 µg/mL		
CCCCOCc1cc(O)c(O)c(Br)c1Cc1cc(O)c(O)c(Br)c1Br [Compound 4, 3,4-dibromo-5-[2′-bromo-6′-(butoxymethyl)-3′,4′-dihydroxy-benzyl]-benzene-1,2-diol]	27.2%	64.6%			
COc1cc(C(=O)c2c(C(Br)Br)cc(OC)c(OC)c2Br)c(Br)c(Br)c1OC [Compound 1, (2′-bromo-6′-(dibromomethyl)-3′,4′-dimethoxyphenyl)-(2,3-dibromo-4,5-dimethoxyphenyl)-methanone]	47.9%	101%		1840 nM	
CCCOCc1cc(O)c(O)c(Br)c1Cc1c(Br)c(O)c(O)c(Br)c1Br [Compound 8, 3,4,6-tribromo-5-(2-bromo-3,4-dihydroxy-6-(propoxymethyl)benzyl)benzene-1,2-diol]	42.4%	98.8%		1630 nM	
CC(C)COCc1cc(O)c(O)c(Br)c1Cc1c(Br)c(O)c(O)c(Br)c1Br [Compound 11, 3,4,6-tribromo-5-(2-bromo-3,4-dihydroxy-6-(isobutoxymethyl)benzyl)benzene-1,2-diol]		101%			
CCc1oc2ccccc2c1C(=O)c1cc(Br)c(O)c(Br)c1 [benzbromarone]					26000 nM
COc1cc(Br)c(Cc2cc(OC)c(OC)c(Br)c2Cc2cc(OC)c(OC)c(Br)c2Br)cc1OC [Compound 7, 2,3-dibromo-1-[2′-bromo-6′-(2″-bromo-4″,5″-dimethoxybenzyl)-3′,4′-dimethoxybenzyl]-4,5-dimethoxybenzene]		101%			
CC(C)OCc1cc(O)c(O)c(Br)c1Cc1cc(O)c(O)c(Br)c1Br [Compound 3, 3,4-dibromo-5-[2′-bromo-3′,4′-dihydroxy-6′-(isopropoxymethyl)-benzyl]-benzene-1,2-diol]	68.2%	93.9%		628 nM	
CCCCOCc1cc(O)c(O)c(Br)c1Cc1c(Br)c(O)c(O)c(Br)c1Br [Compound 10, 3,4,6-tribromo-5-(2-bromo-6-(butoxymethyl)-3,4-dihydroxybenzyl)benzene-1,2-diol]		99%			
Cc1cc(O)c(O)c(Br)c1Cc1c(Br)c(O)c(O)c(Br)c1Br [Compound 12, 3,4,6-tribromo-5-(2-bromo-3,4-dihydroxy-6-methylbenzyl)benzene-1,2-diol]		57.7%			
CC(C)OCc1cc(O)c(O)c(Br)c1Cc1c(Br)c(O)c(O)c(Br)c1Br [Compound 9, 3,4,6-tribromo-5-(2-bromo-3,4-dihydroxy-6-(isopropoxymethyl)benzyl)benzene-1,2-diol]		98.5%			
